Here are results for one compound from US9844521B2, “Pharmaceutical composition comprising ginger extract or shogaol” (UNIVERSITY-INDUSTRY COOPERATION GROUP OF KYUNG HEE …, priority 2008, dated 2017).

In series [1] the test system is C57BL/6 mouse having MPTP-induced Parkinson's disease. The experiment in a line: Dopamine cell protective activity in striatum and substantia nigra (TH immunohistochemistry), MPTP model. It is filed as in vivo. The conditions noted are these: 10 mg/kg oral once per day for 5 days, MPTP 30 mg/kg i.p., p<0.05 vs MPTP group. The protocol: Mice were divided into three groups, each of which consisted of 6 mice. A first group (control) and a second group (MPTP group) were orally administered once per day with 10% dimethyl sulfoxide in an amount of 5 ml per mouse weight kg for 5 days, and a third group (shogaol-administered group) was orally administered once per day with 10 mg/kg of shogaol dissolved in 10% dimethyl sulfoxide for 5 days. 2 hours after the oral administration, the first group (control) was intraperitoneally administered with saline in an amount of 5 ml per mouse weight kg for 5 days, and the second and third groups were intraperitoneally administered with 30 mg/kg of MPTP dissolved in saline for 5 days.
The mice of the respective groups were sacrificed after the pole test was completely performed, and brain tissues (striatum and substantia nigra) were isolated. […]
The mice of the respective groups were sacrificed after the pole test was completely performed, and brain tissues (striatum and substantia nigra) were isolated. Protection activity was evaluated using the isolated brain tissues in the same manner as in (1-2) above, and the results are shown in FIGS. 14 and 15. […]

Series [2] concerns rat primary mesencephalic dopaminergic cells. In words: Protection of dopamine cells against MPP+ neurotoxicity (TH immunohistochemistry). It is filed as cell-based. The settings on record: 0.01 μM, 10 μM MPP+ for 23 hours; MPP+ group 44.25±7.61% of a control. How it is done: Female Sprague-Dawley rats (2-week old) were used, and shogaol was obtained from WAKO Company (Japan).
Fetal mesencephalon tissues of Sprague-Dawley rats […] were desquamated, and mechanically dissociated by using a forcept. The tissues were treated with trypsin and the number of cells was counted, and the cells were seeded on a cover slip coated with poly-L-lysine (PLL), and then proliferated in an incubator including 5% CO2 and 95% air at a temperature of 37 °C for 5 days. A fetal bovine serum (FBS)-free media was treated with 0.01 μM or 0.1 μM of shogaol after the shogaol was diluted, or the ginger extract (the ethanol extract, the hexane fraction, the ethyl acetate fraction, the butanolfraction, and the water fraction prepared according to Example 1) after the ginger extract was diluted. […]
Cells immobilized by using 4% PFA were washed with PBS and then, dehydrated with 1% hydrogen peroxide for 15 minutes. […] After the color-producing using DAB, a cover slip was separated and then mounted on a slide by using a gel mount and the number of cells was counted.
Cells were color-produced by immunohistochemistry in the same manner as Experimental Example 3-1, and the number of cells was counted and the results are shown in FIGS. 8 and 9.

In series [3] the test system is E. coli WP2 uvrA. The experiment in a line: Back mutation test (genotoxicity in bacteria), E. coli strain. The conditions noted are these: compared with negative control. How it is done: In order to evaluate genotoxicity in bacteria, a back mutation test was performed using histidine-requiring salmonella typhimurium strains (TA 100, TA 1535, TA 98, and TA 1537) and an E. coli strain (E. coli WP2 uvrA). As a result, a positive control has a substantially greater colony number than a negative control. […] Accordingly, it was confirmed that the ginger extract and shogaol all had stability in the genotoxicity test.

Series [4] relates to C57BL/6 mouse having MPTP-induced Parkinson's disease. In words: Pole test in MPTP-induced Parkinson's disease model. It is filed as in vivo. The settings on record: 10 mg/kg oral once per day for 5 days, MPTP 30 mg/kg i.p. How it is done: 7-week old C57BL/6 based male mice (19-22 g) were obtained and nurtured in an animal laboratory at Kyunghee University Graduate School of East-West Medicine
Science for one week or more for adaptation. Water and feed were freely supplied, and the temperature (22±2[…]), humidity (53±3%), and a cycle of brightness and darkness (12 hours) were automatically controlled. Shogaol used was obtained from WAKO Company (Japan).
Mice were divided into three groups, each of which consisted of 6 mice. A first group (control) and a second group (MPTP group) were orally administered once per day with 10% dimethyl sulfoxide in an amount of 5 ml per mouse weight kg for 5 days, and a third group (shogaol-administered group) was orally administered once per day with 10 mg/kg of shogaol dissolved in 10% dimethyl sulfoxide for 5 days. […]
On a day after the last day of the 5-day administration period, a pole test was performed using a pole having a height of 50 cm and a diameter of 1 cm. A C57bl/6 mouse was placed on the pole with its head upward, and a time during which the mouse turns a summit of the pole at an angle of 180° and moves downward until its four feet touch the ground was measured. […]

Series [5] deals with SD rats. The experiment in a line: Acute toxicity test. The settings on record: 0.1 mg/10 ml/kg to 5000 mg/10 ml/kg, 2 weeks.

Turning to `CCCCC/C=C/C(=O)CCc1ccc(O)c(OC)c1` [shogaol, (E)-1-(4-hydroxy-3-methoxyphenyl)dec-4-en-3-one], in series [1] (of a control), the “number of TH positive cells in substantia nigra” value came out at 70.30±4.86. In series [1], the “optical density of striatum (TH immunoreactivity)” value is recorded as 80.11±1.97 % of a control. In series [2], the “number of dopamine positive cells” value is listed as 91.50±3.38%. Also, in series [3], the “colony number (back mutation)” value was “the colony number was not increased”. For the same compound, the T-la (% of control), pole test in series [4] is 99.1 ± 8.11%. For the same compound, in series [5], the body weight entry is given as “weight change with respect to a test material did not occur” and the general symptom result was “abnormal symptoms with respect to a test material were not found”.
